ChEMBL document CHEMBL1201862, “PubChem BioAssay data set” (2004)
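All cell lines were grown in 96-well plates and treated with compound for 48 hours. The concentration for 50% growth inhibition is given as GI50.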 Calls of active or inactive are those of the source. No stated cut-off is given here; in the data, active = GI50 up to about 1.1 µM and inactive = higher.

What was measured:
Assay in all cases: NCI-60 cell line screen, 48 h
SK-MEL-5 = system: SK-MEL-5
OVCAR-5 = system: OVCAR-5
K562 = system: K562
LXFL 529 = system: LXFL 529
SNB-19 = system: SNB-19
DLD-1 = system: DLD-1
M14 = system: M14
SR = system: SR
SK-MEL-2 = system: SK-MEL-2
SN12C = system: SN12C
NCI-H226 = system: NCI-H226
DMS-273 = system: DMS-273
HL-60 = system: HL-60
NCI-H23 = system: NCI-H23
NCI-H522 = system: NCI-H522
OVCAR-4 = system: OVCAR-4
SF-539 = system: SF-539
EKVX = system: EKVX
NCI-H460 = system: NCI-H460
OVCAR-3 = system: OVCAR-3
OVCAR-8 = system: OVCAR-8
TK-10 = system: TK-10
CAKI-1 = system: CAKI-1
SW-620 = system: SW-620
SK-MEL-28 = system: SK-MEL-28
HOP-62 = system: HOP-62
786-0 = system: 786-0
COLO 205 = system: COLO 205
KM12 = system: KM12
U-251 = system: U-251
A498 = system: A498
LOX IMVI = system: LOX IMVI
SNB-75 = system: SNB-75
CCRF-CEM = system: CCRF-CEM
HCT-116 = system: HCT-116
ACHN = system: ACHN
IGROV-1 = system: IGROV-1
HCC 2998 = system: HCC 2998
SF-295 = system: SF-295
DMS-114 = system: DMS-114
MOLT-4 = system: MOLT-4
A549 = system: A549
RPMI-8226 = system: RPMI-8226
SF-268 = system: SF-268
UO-31 = system: UO-31
UACC-257 = system: UACC-257
SK-OV-3 = system: SK-OV-3
HCT-15 = system: HCT-15
HT-29 = system: HT-29
Malme-3M = system: Malme-3M
UACC-62 = system: UACC-62

CCOC(=O)C(NC(=O)c1ccc(/N=N/N(C)C)cc1)C(C)C (stereo unspecified)
GI50 (SK-MEL-5): > 100 µM (inactive)
GI50 (OVCAR-5): > 100 µM (inactive)
GI50 (K562): > 100 µM (inactive)
GI50 (LXFL 529): > 100 µM (inactive)
GI50 (SNB-19): > 100 µM (inactive)
GI50 (DLD-1): > 100 µM (inactive)
GI50 (M14): > 100 µM (inactive)
GI50 (SR): > 100 µM (inactive)
GI50 (SK-MEL-2): > 100 µM (inactive)
GI50 (SN12C): > 100 µM (inactive)
GI50 (NCI-H226): > 100 µM (inactive)
GI50 (DMS-273): > 100 µM (inactive)
GI50 (HL-60): > 100 µM (inactive)
GI50 (NCI-H23): > 100 µM (inactive)
GI50 (NCI-H522): > 100 µM (inactive)
GI50 (OVCAR-4): > 100 µM (inactive)
GI50 (SF-539): > 100 µM (inactive)
GI50 (EKVX): > 100 µM (inactive)
GI50 (NCI-H460): > 100 µM (inactive)
GI50 (OVCAR-3): > 100 µM (inactive)
GI50 (OVCAR-8): > 100 µM (inactive)
GI50 (TK-10): 54.2 µM (inactive)
GI50 (CAKI-1): > 100 µM (inactive)
GI50 (SW-620): > 100 µM (inactive)
GI50 (SK-MEL-28): > 100 µM (inactive)
GI50 (HOP-62): > 100 µM (inactive)
GI50 (786-0): > 100 µM (inactive)
GI50 (COLO 205): > 100 µM (inactive)
GI50 (KM12): > 100 µM (inactive)
GI50 (U-251): 31 µM (inactive)
GI50 (A498): > 100 µM (inactive)
GI50 (LOX IMVI): > 100 µM (inactive)
GI50 (SNB-75): > 100 µM (inactive)
GI50 (CCRF-CEM): > 100 µM (inactive)
GI50 (HCT-116): > 100 µM (inactive)
GI50 (ACHN): > 100 µM (inactive)
GI50 (IGROV-1): > 100 µM (inactive)
GI50 (HCC 2998): > 100 µM (inactive)
GI50 (SF-295): > 100 µM (inactive)
GI50 (DMS-114): > 100 µM (inactive)
GI50 (MOLT-4): > 100 µM (inactive)
GI50 (A549): > 100 µM (inactive)
GI50 (RPMI-8226): > 100 µM (inactive)
GI50 (SF-268): > 100 µM (inactive)
GI50 (UO-31): > 100 µM (inactive)
GI50 (UACC-257): > 100 µM (inactive)
GI50 (SK-OV-3): > 100 µM (inactive)
GI50 (HCT-15): > 100 µM
GI50 (HT-29): > 100 µM (inactive)
GI50 (Malme-3M): > 100 µM (inactive)
GI50 (UACC-62): > 100 µM (inactive)
